# Columns and labels:
# Assay type in all cases: in vivo
# Rhyncosporium secalis = test: Barley Scald (RHYNSE) disease control; details: Hordeum vulgare, 24 h, 1 Day Protectant, read-out: Disease Control RHYNSE 1 DP
# Protocol: (§1) Technical grades of materials were dissolved in acetone, which were then mixed with nine volumes of water containing 110 ppm Triton X-100. The fungicide solutions were applied onto wheat seedlings using an automated booth sprayer to run-off. All sprayed plants were allowed to air dry prior to further handling. All fungicides were evaluated using the aforementioned method for their activity vs. all target diseases. Wheat leaf blotch and brown rust activity were also evaluated using track spray applications, in which case the fungicides were formulated as EC formulations, containing 0.1% Trycol 5941 in the spray solutions. Wheat plants (variety Yuma) were grown from seed in a greenhouse in 50% mineral soil/50% soil-less Metro mix until the first leaf was fully emerged, with 7-10 seedlings per pot. These plants were inoculated with an aqueous spore suspension of Septoria tritici either prior to or after fungicide treatments. After inoculation the plants were kept in 100% relative humidity (one day in a dark dew chamber followed by two to three days in a lighted dew chamber at 20° C.) to permit spores to germinate and infect the leaf. The plants were then transferred to a greenhouse set at 20° C. for disease to develop. When disease symptoms were fully expressed on the 1st leaves of untreated plants, infection levels were assessed on a scale of 0 to 100 percent disease severity. Percent disease control was calculated using the ratio of disease severity on treated plants relative to untreated plants. Barley seedlings (variety Harrington) were propagated in soil-less Metro mix, with each pot having 8 to 12 plants, and used in the test when first leaf was fully emerged. Test plants were inoculated by an aqueous spore suspension of Rhyncosporium secalis 24 hr after fungicide treatments. After inoculation the plants were kept in a dew room at 20° C. with 100% relative humidity for 48 hr. The plants were then transferred to a greenhouse set at 20° C. for disease to develop. Fungicide formulation, application and disease assessment on the sprayed leaves followed the procedures as described in the Example A.
# [1] = tested on: Blumeria graminis f. sp. hordei; Synonym: Erysiphe graminis f. sp. hordei; test: Barley Powdery Mildew (ERYSGH) disease control; details: Blumeria graminis, 24 h, 1 Day Protectant, read-out: Disease Control ERYSGH 1 DP
# Protocol: as §1, with “dusting with infected stock plants” for “an aqueous spore suspension of Rhyncosporium secalis”, “in” for “in a dew room at 20° C. with 100% relative humidity for 48 hr. The plants were then transferred to”
# [2] = tested on: Glomerella lagenarium; Anamorph: Colletotrichum lagenarium; test: Cucumber Anthracnose (COLLLA) disease control; details: Colletotrichum orbiculare, topical, 24 h, 1 Day Protectant, read-out: Disease Control COLLLA 1 DP
# Protocol: Technical grades of materials were dissolved in acetone, which were then mixed with nine volumes of water containing 110 ppm Triton X-100. The fungicide solutions were applied onto wheat seedlings using an automated booth sprayer to run-off. All sprayed plants were allowed to air dry prior to further handling. All fungicides were evaluated using the aforementioned method for their activity vs. all target diseases. Wheat leaf blotch and brown rust activity were also evaluated using track spray applications, in which case the fungicides were formulated as EC formulations, containing 0.1% Trycol 5941 in the spray solutions. Wheat plants (variety Yuma) were grown from seed in a greenhouse in 50% mineral soil/50% soil-less Metro mix until the first leaf was fully emerged, with 7-10 seedlings per pot. These plants were inoculated with an aqueous spore suspension of Septoria tritici either prior to or after fungicide treatments. After inoculation the plants were kept in 100% relative humidity (one day in a dark dew chamber followed by two to three days in a lighted dew chamber at 20° C.) to permit spores to germinate and infect the leaf. The plants were then transferred to a greenhouse set at 20° C. for disease to develop. When disease symptoms were fully expressed on the 1st leaves of untreated plants, infection levels were assessed on a scale of 0 to 100 percent disease severity. Percent disease control was calculated using the ratio of disease severity on treated plants relative to untreated plants. Cucumber seedlings (variety Bush Pickle) were propagated in soil-less Metro mix, with each pot having one plant, and used in the test when 12 to 14 days old. Test plants were inoculated with an aqueous spore suspension of Colletotrichum lagenarium 24 hr after fungicide treatments. After inoculation the plants were kept in a dew room at 22° C. with 100% relative humidity for 48 hr to permit spores to germinate and infect the leaf. The plants were then transferred to a growth room set at 22° C. for disease to develop. Fungicide formulation, application and disease assessment on the sprayed leaves followed the procedures as described in the Example A.
# [3] = tested on: Magnaporthe grisea; Anamorph: Pyricularia oryzae; test: whole plant or invertebrate; details: Pyricularia oryzae, topical, 24 h, read-out: Disease Control PYRIOR 1 DP
Structure (SMILES),pest or weed control at 100 ppm (Rhyncosporium secalis) [%],pest or weed control at 100 ppm [1] [%],pest or weed control at 100 ppm [2] [%],pest or weed control at 100 ppm [3] [%]
COc1ccnc(C(=O)N[C@H]2CCC[C@H](Cc3ccc(F)cc3F)[C@@H](OCC(C)C)[C@H](C)OC2=O)c1OCOC(C)=O [Compound F145],80 to 100,80 to 100,80 to 100,–
COCC[C@H]1CCC[C@H](NC(=O)c2nccc(OC)c2OC(C)=O)C(=O)O[C@@H](C)[C@@H]1Oc1ccccc1 [Compound F78],80 to 100,0 to 80,80 to 100,80 to 100
CCCO[C@@H]1[C@@H](Cc2ccccc2)CCC[C@H](NC(=O)c2nccc(OC)c2OC(C)=O)C(=O)O[C@H]1C [Compound F88],80 to 100,80 to 100,80 to 100,80 to 100
COc1ccnc(C(=O)N[C@H]2CCC[C@H](Cc3ccc(F)cc3)[C@@H](OCC3CC3)[C@H](C)OC2=O)c1OC(C)=O [Compound F67],80 to 100,80 to 100,80 to 100,80 to 100
C=C[C@H]1CCC[C@H](NC(=O)c2nccc(OC)c2OC(C)=O)C(=O)O[C@@H](C)[C@@H]1Oc1ccccc1 [Compound F86],80 to 100,0 to 80,80 to 100,80 to 100
CCCO[C@@H]1[C@@H](Cc2ccc(OC)cc2)CCC[C@H](NC(=O)c2nccc(OC)c2OCOC(C)=O)C(=O)O[C@H]1C [Compound F119],80 to 100,–,80 to 100,80 to 100
CCCO[C@@H]1[C@@H](Cc2ccccc2)CCC[C@H](NC(=O)c2nccc(OC)c2OCOC(C)=O)C(=O)O[C@H]1C [Compound F109],80 to 100,80 to 100,80 to 100,80 to 100
COc1ccnc(C(=O)N[C@H]2CCC[C@H](Cc3ccccc3)[C@@H](OC3CCCC3)[C@H](C)OC2=O)c1OCOC(C)=O [Compound F110],80 to 100,80 to 100,–,80 to 100
COCC[C@H]1CCC[C@H](NC(=O)c2nccc(OC)c2OCOC(C)=O)C(=O)O[C@@H](C)[C@@H]1Oc1ccccc1 [Compound F130],80 to 100,0 to 80,80 to 100,80 to 100
CCOCC(=O)OCOc1c(OC)ccnc1C(=O)N[C@H]1CCC[C@H](CC2CCCCC2)[C@@H](OCC(C)C)[C@H](C)OC1=O [Compound F175],80 to 100,80 to 100,–,80 to 100
COc1ccnc(C(=O)N[C@H]2CCC[C@H](Cc3ccccc3)[C@@H](OCC(C)C)[C@H](C)OC2=O)c1OCOC(C)=O [Compound F106],80 to 100,80 to 100,80 to 100,80 to 100
CCCO[C@@H]1[C@@H](CCC(C)C)CCC[C@H](NC(=O)c2nccc(OC)c2OCOC(=O)COCC)C(=O)O[C@H]1C [Compound F161],80 to 100,80 to 100,80 to 100,80 to 100
CCCO[C@@H]1[C@@H](CCC(C)C)CCC[C@H](NC(=O)c2nccc(OC)c2OC(C)=O)C(=O)O[C@H]1C [Compound F64],80 to 100,80 to 100,80 to 100,80 to 100
CCOCC(=O)OCOc1c(OC)ccnc1C(=O)N[C@H]1CCC[C@H](Cc2ccccc2)[C@@H](OCC(C)C)[C@H](C)OC1=O [Compound F172],80 to 100,80 to 100,80 to 100,80 to 100
COc1ccc(C[C@H]2CCC[C@H](NC(=O)c3nccc(OC)c3OCOC(C)=O)C(=O)O[C@@H](C)[C@@H]2Oc2ccccc2)cc1 [Compound F114],80 to 100,–,80 to 100,80 to 100
COc1ccc(C[C@H]2CCC[C@H](NC(=O)c3nccc(OC)c3OCOC(C)=O)C(=O)O[C@@H](C)[C@@H]2OCC(C)C)cc1 [Compound F118],80 to 100,–,80 to 100,80 to 100
COc1ccnc(C(=O)N[C@H]2CCC[C@H](CC3CCCCC3)[C@@H](OCC(C)C)[C@H](C)OC2=O)c1OCOC(C)=O [Compound F113],80 to 100,80 to 100,–,80 to 100
COc1ccnc(C(=O)N[C@H]2CCC[C@H](Cc3ccc(C)cc3)[C@@H](OCC(C)C)[C@H](C)OC2=O)c1OCOC(C)=O [Compound F126],80 to 100,–,80 to 100,80 to 100
CCOCC(=O)OCOc1c(OC)ccnc1C(=O)N[C@H]1CCC[C@H](Cc2ccc(F)cc2)[C@@H](OCC(C)C)[C@H](C)OC1=O [Compound F168],–,80 to 100,80 to 100,–
COc1ccnc(C(=O)N[C@H]2CCC[C@H](Cc3ccc(F)cc3F)[C@@H](OC(=O)c3ccco3)[C@H](C)OC2=O)c1OCOC(C)=O [Compound F144],80 to 100,–,80 to 100,–
COc1ccnc(C(=O)N[C@H]2CCC[C@H](Cc3ccc(F)cc3F)[C@@H](OC(=O)c3ccco3)[C@H](C)OC2=O)c1OCOC(=O)C(C)C [Compound F157],80 to 100,–,80 to 100,–
COc1ccnc(C(=O)N[C@H]2CCC[C@H](CCBr)[C@@H](Oc3ccccc3)[C@H](C)OC2=O)c1OC(C)=O [Compound F80],–,0 to 80,80 to 100,80 to 100
COc1ccnc(C(=O)N[C@H]2CCC[C@H](Cc3ccccc3)[C@@H](OCC(C)C)[C@H](C)OC2=O)c1OCOC(=O)C(C)C [Compound F151],–,80 to 100,80 to 100,80 to 100
COc1ccnc(C(=O)N[C@H]2CCC[C@H](Cc3ccc(F)cc3)[C@@H](OCC(C)C)[C@H](C)OC2=O)c1OCOC(C)=O [Compound F102],–,0 to 80,80 to 100,–

# From US9265253B2, “Use of macrocyclic picolinamides as fungicides” (DOW AGROSCIENCES LLC, priority 2013, dated 2016)
